Calls of active or inactive are those of the source. The calls are words filed in the database; no cut-off is given here.

Test [1] can be described thus: Inhibition of quorum sensing system in Pseudomonas aeruginosa transfected with lasB-gfp.
In another test the test system is Pseudomonas aeruginosa. The experiment in a line: Inhibition of biofilm formation in Pseudomonas aeruginosa at 100 uM measured after 48 hrs relative to control. It counts as functional.
Test [2] can be described thus: Inhibition of quorum sensing system in Chromobacterium violaceum ATCC 31352 assessed as reduction in violacein production at 100 uM relative to control.
A further test is filed under the species Homo sapiens. The test is described as follows: Activation of protease (unknown origin). Conditions: filed as activator.

`COC(=O)c1ccnc(C(F)F)c1`: inhibition in test [1] was half-maximal at 27 µM (IC50). In addition, at 100 µM the inhibition with Pseudomonas aeruginosa was 75%. In test [2], the inhibition (as a rule, the percentage by which the read-out fell short of the control) turned out to be 59%. Further, in the test filed under Homo sapiens, the outcome was Active.
As for `COC(=O)c1ccncc1C(F)F`, in test [1], the inhibition result was “Active”.
Take `FC(F)c1cc(Oc2ccccc2)ccn1`: in test [1], the inhibition result is “Active”.
For `FC(F)c1ccccn1`, the inhibition result in test [1] was “Active”.
`N#Cc1cc[n+]([O-])cc1`: the inhibition result in test [1] is “Active”.
On to `FC(F)c1cccnc1`, for which the inhibition entry in test [1] was “Active”.
On to `O=C(c1ccc(Cl)cc1)c1ccnc(C(F)F)c1`, for which the IC50 – broadly, the point on the concentration scale where inhibition reaches its midpoint – in test [1] turned out to be 35 µM. The molecule also showed an inhibition at 100 µM in the test with Pseudomonas aeruginosa of 73%. The inhibition in test [2] is 57%. Further, the result in the test filed under Homo sapiens was Active.
On to `FC(F)c1ccc2ccccc2n1`, for which, in test [1], the inhibition result is “Active”.
The molecule `O=[N+]([O-])c1cc[n+]([O-])cc1` had an IC50 in test [1] of 33 µM. The molecule also yielded an inhibition at 100 µM in the test on Pseudomonas aeruginosa of 71%. For the same molecule, in test [2], the inhibition was 37.5%. In addition, the result in the test listed under Homo sapiens was Active.
As to `FC(F)c1nccc2ccccc12`, the inhibition entry in test [1] was “Active”.
In the case of `FC(F)c1cc(-c2ccccc2)ccn1`, the inhibition entry in test [1] was “Active”.
As to `N#Cc1ccnc(C(F)F)c1`, the IC50 in test [1] is 19 µM. The molecule also had an inhibition at 100 µM in the test on Pseudomonas aeruginosa of 85%. The inhibition in test [2] worked out at 66%. The outcome in the test listed under Homo sapiens was Active.
With `FC(F)c1cc(Cc2ccc(Cl)cc2)ccn1`, the inhibition result in test [1] is “Active”.
The same measure, in the same setting: under `FC(F)c1ccncc1` stands “Active”.
